Values quoted from earlier work in article PMC11226190 (Drug Design, Development and Therapy, 2024).

Settings: comparable publication

NC(=O)CI [Iodoacetamide]
second order rate constant, DTNB assay: 2.5 M⁻¹ s⁻¹
